Test results: article PMC8137473, “Preclinical trial of a MAP4K4 inhibitor to reduce infarct size in the pig: does cardioprotection in human stem cell-derived myocytes predict success in large mammals?” (Basic Research in Cardiology, 2021)

System: swine
Experiment: pilot physiological study in healthy, chronically instrumented swine
Type: in vivo
Settings: for LV dP/dtmin: in mmHg/s (unit assumed)
Method: Pilot physiological studies were performed in 2 female swine (45 and 85 kg), to confirm the lack of adverse effects from DMX-10001 in healthy myocardium. Animals were chronically instrumented as detailed below. Following a recovery week, animals received the pro-drug DMX-10001, while hemodynamics were recorded. Based on prior pharmacokinetic studies and modeling (Fig. 1b), two different dosing regimens were investigated, a three-step infusion (41 mg/kg/h, 0.5 h + 15.3 mg/kg/h, 2.5 h + 9.8 mg/kg/h, 5 h) versus a logistically simpler two-step approach (60 mg/kg/h, 0.5 h + 17 mg/kg/h, 23.5 h). During infusion of the pro-drug, blood was sampled to measure production of the active form, DMX-5804, by liquid chromatography–mass spectometry (Pharmidex, London, UK) as described.
A chronically instrumented animal received DMX-10001 for 8 h as shown, with a rapid initial infusion then stepwise decreasing concentrations over time. […] HR, heart rate; MAP, mean arterial pressure; CO, cardiac output; SV, stroke volume; SVR, systemic vascular resistance; dP/dtmax, maximal rate of rise in LV pressure; dP/dtmin, maximal rate of fall in LV pressure.
A chronically instrumented animal received DMX-10001 for 24 h as shown, starting with rapid infusion for half an hour then a lower concentration. […] HR, heart rate; MAP, mean arterial pressure; CO, cardiac output; SV, stroke volume; SVR, systemic vascular resistance; dP/dtmax, maximal rate of rise in LV pressure; dP/dtmin, maximal rate of fall in LV pressure.

[1] = animal 1, three-step infusion, 2 min
[2] = animal 1, three-step infusion, 10 min
[3] = animal 1, three-step infusion, 40 min
[4] = animal 1, three-step infusion, 1h
[5] = animal 1, three-step infusion, 2h
[6] = animal 1, three-step infusion, 3h
[7] = animal 1, three-step infusion, 4h
[8] = animal 1, three-step infusion, 6h
[9] = animal 1, three-step infusion, 8h
[10] = animal 1, three-step infusion, 8h 2 min
[11] = animal 1, three-step infusion, 8h 10 min
[12] = animal 1, three-step infusion, 8h 30 min
[13] = animal 1, three-step infusion, Baseline
[14] = animal 2, two-step infusion, 2 min
[15] = animal 2, two-step infusion, 10min
[16] = animal 2, two-step infusion, 30 min
[17] = animal 2, two-step infusion, 40 min
[18] = animal 2, two-step infusion, 2h
[19] = animal 2, two-step infusion, 24h
[20] = animal 2, two-step infusion, 24h 2 min
[21] = animal 2, two-step infusion, 24h 10 min
[22] = animal 2, two-step infusion, 24h 30 min
[23] = animal 2, two-step infusion, 25h
[24] = animal 2, two-step infusion, Baseline

CO [1]: 11.2 L/min | HR [1]: 116 bpm | LV dP/dtmax [1]: 4070 mmHg/s | MAP [1]: 96 mmHg | SV [1]: 97 mL | SVR [1]: 8.6 mmHg/L/min | LV dP/dtmin [1]: -2280 | CO [2]: 11.1 L/min | HR [2]: 112 bpm | LV dP/dtmax [2]: 3290 mmHg/s | MAP [2]: 88 mmHg | SV [2]: 99 mL | SVR [2]: 7.9 mmHg/L/min | LV dP/dtmin [2]: -2280 | CO [3]: 10.1 L/min | HR [3]: 105 bpm | LV dP/dtmax [3]: 4060 mmHg/s | MAP [3]: 99 mmHg | SV [3]: 96 mL | SVR [3]: 9.8 mmHg/L/min | LV dP/dtmin [3]: -2530 | CO [4]: 10.7 L/min | HR [4]: 115 bpm | LV dP/dtmax [4]: 4040 mmHg/s | MAP [4]: 103 mmHg | SV [4]: 93 mL | SVR [4]: 9.7 mmHg/L/min | LV dP/dtmin [4]: -2690 | CO [5]: 11.4 L/min | HR [5]: 106 bpm | LV dP/dtmax [5]: 4840 mmHg/s | MAP [5]: 107 mmHg | SV [5]: 108 mL | SVR [5]: 9.4 mmHg/L/min | LV dP/dtmin [5]: -3270 | CO [6]: 13.0 L/min | HR [6]: 120 bpm | LV dP/dtmax [6]: 6030 mmHg/s | MAP [6]: 117 mmHg | SV [6]: 108 mL | SVR [6]: 9.0 mmHg/L/min | LV dP/dtmin [6]: -3330 | CO [7]: 12.0 L/min | HR [7]: 113 bpm | LV dP/dtmax [7]: 5260 mmHg/s | MAP [7]: 120 mmHg | SV [7]: 106 mL | SVR [7]: 10 mmHg/L/min | LV dP/dtmin [7]: -3020 | CO [8]: 12.9 L/min | HR [8]: 134 bpm | LV dP/dtmax [8]: 5430 mmHg/s | MAP [8]: 105 mmHg | SV [8]: 96 mL | SVR [8]: 8.2 mmHg/L/min | LV dP/dtmin [8]: -2830 | CO [9]: 11.8 L/min | HR [9]: 111 bpm | LV dP/dtmax [9]: 5020 mmHg/s | MAP [9]: 95 mmHg | SV [9]: 106 mL | SVR [9]: 8.0 mmHg/L/min | CO [10]: 11.1 L/min | HR [10]: 105 bpm | LV dP/dtmax [10]: 4550 mmHg/s | MAP [10]: 92 mmHg | SV [10]: 106 mL | SVR [10]: 8.3 mmHg/L/min | LV dP/dtmin [10]: -2820 | CO [11]: 11.4 L/min | HR [11]: 105 bpm | LV dP/dtmax [11]: 4730 mmHg/s | MAP [11]: 102 mmHg | SV [11]: 109 mL | SVR [11]: 8.9 mmHg/L/min | LV dP/dtmin [11]: -3300 | CO [12]: 14.3 L/min | HR [12]: 127 bpm | LV dP/dtmax [12]: 5740 mmHg/s | MAP [12]: 101 mmHg | SV [12]: 113 mL | SVR [12]: 7.1 mmHg/L/min | LV dP/dtmin [12]: -3190 | LV dP/dtmin [9]: -2920 | CO [13]: 11.1 L/min | HR [13]: 117 bpm | LV dP/dtmax [13]: 3470 mmHg/s | MAP [13]: 94 mmHg | SV [13]: 95 mL | SVR [13]: 8.5 mmHg/L/min | LV dP/dtmin [13]: -2500 | CO [14]: 9.7 L/min | HR [14]: 116 bpm | LV dP/dtmax [14]: 5860 mmHg/s | MAP [14]: 80 mmHg | SV [14]: 84 mL | SVR [14]: 8.2 mmHg/L/min | LV dP/dtmin [14]: -4170 | CO [15]: 6.9 L/min | HR [15]: 90 bpm | LV dP/dtmax [15]: 3400 mmHg/s | MAP [15]: 83 mmHg | SV [15]: 76 mL | SVR [15]: 12.1 mmHg/L/min | LV dP/dtmin [15]: -3670 | CO [16]: 6.7 L/min | HR [16]: 92 bpm | LV dP/dtmax [16]: 3420 mmHg/s | MAP [16]: 84 mmHg | SV [16]: 72 mL | SVR [16]: 12.7 mmHg/L/min | LV dP/dtmin [16]: -3430 | CO [17]: 6.1 L/min | HR [17]: 83 bpm | LV dP/dtmax [17]: 3680 mmHg/s | MAP [17]: 90 mmHg | SV [17]: 73 mL | SVR [17]: 14.8 mmHg/L/min | LV dP/dtmin [17]: -3640 | CO [18]: 7.2 L/min | HR [18]: 91 bpm | LV dP/dtmax [18]: 4250 mmHg/s | MAP [18]: 94 mmHg | SV [18]: 79 mL | SVR [18]: 13.1 mmHg/L/min | LV dP/dtmin [18]: -4120 | CO [19]: 8.7 L/min | HR [19]: 107 bpm | LV dP/dtmax [19]: 4260 mmHg/s | MAP [19]: 89 mmHg | SV [19]: 82 mL | SVR [19]: 10.2 mmHg/L/min | CO [20]: 9.1 L/min | HR [20]: 111 bpm | LV dP/dtmax [20]: 5090 mmHg/s | MAP [20]: 72 mmHg | SV [20]: 82 mL | SVR [20]: 7.9 mmHg/L/min | LV dP/dtmin [20]: -3740 | CO [21]: 7.0 L/min | HR [21]: 87 bpm | LV dP/dtmax [21]: 3950 mmHg/s | MAP [21]: 97 mmHg | SV [21]: 80 mL | SVR [21]: 13.9 mmHg/L/min | LV dP/dtmin [21]: -4120 | CO [22]: 7.7 L/min | HR [22]: 92 bpm | LV dP/dtmax [22]: 4810 mmHg/s | MAP [22]: 144 mmHg | SV [22]: 83 mL | SVR [22]: 18.9 mmHg/L/min | LV dP/dtmin [22]: -4140 | LV dP/dtmin [19]: -3380 | CO [23]: 9.1 L/min | HR [23]: 115 bpm | LV dP/dtmax [23]: 5360 mmHg/s | MAP [23]: 153 mmHg | SV [23]: 79 mL | SVR [23]: 16.8 mmHg/L/min | LV dP/dtmin [23]: -4460 | CO [24]: 7.8 L/min | HR [24]: 101 bpm | LV dP/dtmax [24]: 3800 mmHg/s | MAP [24]: 77 mmHg | SV [24]: 77 mL | SVR [24]: 10.0 mmHg/L/min | LV dP/dtmin [24]: -3040
Compound: COCCOc1ccc(-c2cn(-c3ccccc3)c3ncn(COP(=O)(O)O)c(=O)c23)cc1 [DMX-10001]
adverse effect on hemodynamics or LV function (pilot studies of two healthy animals): No adverse effect
